# Source: publication PMC165585 (BMC Structural Biology, 2003)
# Experiments:
# [1] = molecular target: T1, LysU (heat-inducible Escherichia coli lysyl-tRNA synthetase) (Escherichia coli, UniProt P0A8N5); assay: isothermal titration calorimetry; format: binding
# T1 sequence (P0A8N5 2-505): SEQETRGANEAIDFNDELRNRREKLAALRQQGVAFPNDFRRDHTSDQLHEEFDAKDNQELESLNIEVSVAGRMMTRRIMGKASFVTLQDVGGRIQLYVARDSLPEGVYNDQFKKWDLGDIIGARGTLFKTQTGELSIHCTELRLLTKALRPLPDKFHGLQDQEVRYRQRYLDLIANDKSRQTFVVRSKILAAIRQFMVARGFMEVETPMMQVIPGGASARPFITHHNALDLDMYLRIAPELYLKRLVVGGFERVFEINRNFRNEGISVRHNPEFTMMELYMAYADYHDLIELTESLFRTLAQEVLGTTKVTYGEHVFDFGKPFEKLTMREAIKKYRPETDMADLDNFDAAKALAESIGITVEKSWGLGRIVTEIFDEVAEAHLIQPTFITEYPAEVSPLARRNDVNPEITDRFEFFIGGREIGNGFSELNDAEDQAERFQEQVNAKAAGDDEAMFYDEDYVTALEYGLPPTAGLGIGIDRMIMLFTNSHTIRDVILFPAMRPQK
# [2] = molecular target: T1, LysU (heat-inducible Escherichia coli lysyl-tRNA synthetase); assay: biochemical
Kd [1],Structure (SMILES),Kd [2]
1.22 ± 0.15 µM,"Nc1ncnc2c1ncn2[C@@H]1O[C@H](COP(=O)(O)OP(=O)(O)CP(=O)(O)O)[C@@H](O)[C@H]1O [AMPPCP, β,γ-methyleneadenosine 5'-triphosphate]",–
–,NCCCC[C@H](N)C(=O)O [lysine],7.96 ± 1.4 µM
